{
  "source": "patent US20250230470A1",
  "about": "“SAFETY SWITCHES TO CONTROL IN VITRO AND IN VIVO PROLIFERATION OF CELL THERAPY PRODUCTS” (Sana Biotechnology, Inc., priority 2024, published 2025)",
  "assay_type_in_all_cases": "cell-based",
  "key": {"[1]": {"tested_on": "CDA_CDK1 pancreatic progenitors", "assay": "Ki67 staining by flow cytometry of pancreatic progenitor cells untreated or treated with 5-FC", "settings": "CDA_CDK1 pancreatic progenitor culture; 100 μM 5-FC", "method": "(§1) In order to test whether the CDA-induced killing was specific to proliferative cells, pancreatic progenitor cells, untreated or treated with 100 μM of 5-FC, were stained for proliferation marker Ki67 and analyzed by flow cytometry."}, "[2]": {"tested_on": "CDA_AAVS1 pancreatic progenitors", "assay": "Ki67 staining by flow cytometry of pancreatic progenitor cells untreated or treated with 5-FC", "settings": "100 μM 5-FC", "method": "as §1"}, "[3]": {"tested_on": "CDA_AURKB pancreatic progenitors", "assay": "Ki67 staining by flow cytometry of pancreatic progenitor cells untreated or treated with 5-FC", "settings": "100 μM 5-FC", "method": "as §1"}, "[4]": {"tested_on": "CDA_CDK1 iPSCs and pancreatic progenitors", "assay": "Cell viability after 5-FC (CDA kill switch) in directed differentiation", "method": "(§2) To validate iCaspase 9 and cytosine deaminase (CDA) kill switch function in vitro, undifferentiated iPSCs and differentiated pancreatic progenitors with either iC9 or CDA knocked into the AURKB or CDK1 loci were tested for selective killing of pluripotent and proliferative cells in a directed differentiation into beta islet cells.\n(§3) The kill switch function of CDA, which is inherently specific to proliferative cells, at the AURKB and CDK1 loci was tested in pancreatic progenitor cells generated by directed differentiation from CDA_AURKB iPSCs or CDA_CDK1 iPSCs. […] The partial loss-of-function was similarly observed in the control cell lines with CDA knocked into the AAVS1 locus."}, "[5]": {"tested_on": "CDA_AURKB iPSCs and pancreatic progenitors", "assay": "Cell viability after 5-FC (CDA kill switch) in directed differentiation", "method": "as §2, §3"}, "[6]": {"tested_on": "CDA_AAVS1 iPSCs and pancreatic progenitors", "assay": "Cell viability after 5-FC (CDA kill switch) in directed differentiation", "settings": "100 μM 5-FC", "method": "as §2, §3"}, "[7]": {"tested_on": "control iPSC (dko) and day 12 pancreatic progenitor cells", "assay": "Cell viability after 5-FC (CDA kill switch) in directed differentiation", "settings": "increasing concentrations of 5-FC", "method": "as §2, §3"}},
  "data": [
    {"compound": "Nc1nc(=O)[nH]cc1F", "note": "[5-FC, 5-fluorocytosine]", "values": [
      {"measurement": "clearance of Ki-67 expressing cells", "setting": "[1]", "result": "clearance of most of the proliferative cells"},
      {"measurement": "clearance of Ki-67 expressing cells", "setting": "[2]", "result": "clearance of most of the proliferative cells"},
      {"measurement": "clearance of Ki-67 expressing cells", "setting": "[3]", "result": "a large subset of Ki-67 expressing cells was cleared"},
      {"measurement": "cell viability", "setting": "[4]; CDA_CDK1 iPSCs, 100 μM 5-FC", "result": "complete cell death"},
      {"measurement": "cell killing", "setting": "[4]; CDA_CDK1 pancreatic progenitors, day 12 of differentiation", "result": "partially lost CDA function"},
      {"measurement": "cell killing", "setting": "[5]; CDA-AURKB pancreatic progenitors, day 12 of differentiation", "result": "partial loss of CDA function"},
      {"measurement": "5-FC concentration at which viability began to decrease", "setting": "[5]; CDA_AURKB iPSCs", "result": "about 5 μM"},
      {"measurement": "cell viability", "setting": "[5]; CDA_AURKB iPSCs, about 100 μM 5-FC", "result": "complete cell death"},
      {"measurement": "cell viability", "setting": "[6]; CDA_AAVS1 iPSCs", "result": "no viable CDA_AAVS1 iPSCs"},
      {"measurement": "viability at 100 µM", "setting": "[6]; iPSC, read-out: cells remained viable, CDA_AAVS1 pancreatic progenitors", "result": 50, "unit": "%"},
      {"measurement": "cell viability", "setting": "[7]", "result": "maintained viability"}
    ]}
  ]
}
